Assay results as given in patent publication US20100311714A1, “1H-IMIDAZO[4,5-c]QUINOLINONE COMPOUNDS” (priority 2009, published 2010).
Like-named read-outs stand apart in the source and are kept apart here.

Key:
[1] = tested on: S6 Ribosomal Protein phosphorylation Ser235/236 in TSC1 null mouse embryo fibroblast (MEF) cells; test: Reverse protein array, S6 Ribosomal Protein phosphorylation in TSC1 null MEF cells; type: cell-based; details: 1 h, TSC1-/- MEFs, 60 minutes
How it was run: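 Phospho-S6 (Ser235/236) was quantified by reverse protein array of cell lysates with a phospho-specific primary antibody. […]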

[2] = tested on: PKB Ser473 phosphorylation in Rat1-myr-HA-p110 beta cells; test: Reverse protein array, PKB Ser473 phosphorylation in Rat1-myr-HA-p110 beta cells; type: cell-based; details: Rattus norvegicus, 0.5 h, 30 minutes compound incubation, read-out: p-PKB/IC50_beta

| Compound | IC50 [2] | IC50 ([1]; read-out: p-S6 IC50) | IC50 ([1]; read-out: p-S6) |
| --- | --- | --- | --- |
| CCNc1cc(-c2ccc3ncc4c(c3c2)n(-c2ccc(C)nc2C)c(=O)n4C)cnc1C [Example 14.6, 1-(2,6-Dimethyl-pyridin-3-yl)-8-(5-ethylamino-6-methyl-pyridin-3-yl)-3-methyl-1,3-dihydro-imidazo[4,5-c]quinolin-2-one] | 0.0081 µM | 0.002 µM |  |
| CCNc1cc(-c2ccc3ncc4c(c3c2)n(-c2ccc(N(C)CC)nc2C)c(=O)n4C)cnc1C [Example 12.2, 8-(5-Ethylamino-6-methyl-pyridin-3-yl)-1-[6-(ethyl-methyl-amino)-2-methyl-pyridin-3-yl]-3-methyl-1,3-dihydro-imidazo[4,5-c]quinolin-2-one] | < 0.00457 µM | 0.003 µM |  |
| Cc1nc(N2CC(F)(F)C2)ccc1-n1c(=O)n(C)c2cnc3ccc(-c4cncc(C(C)(C)O)c4)cc3c21 [Example 24.2, 1-[6-(3,3-Difluoro-azetidin-1-yl)-2-methyl-pyridin-3-yl]-8-[5-(1-hydroxy-1-methyl-ethyl)-pyridin-3-yl]-3-methyl-1,3-dihydro-imidazo[4,5-c]quinolin-2-one] | 0.0307 µM | 0.001 µM |  |
| CCN(C)c1ccc(-n2c(=O)n(C)c3cnc4ccc(-c5ccc(NC)nc5)cc4c32)c(C)n1 [Example 12.1, 1-[6-(Ethyl-methyl-amino)-2-methyl-pyridin-3-yl]-3-methyl-8-(6-methylamino-pyridin-3-yl)-1,3-dihydro-imidazo[4,5-c]quinolin-2-one] | < 0.00457 µM | < 0.000457 µM |  |
| COCc1ncc(-c2ccc3ncc4c(c3c2)n(-c2ccc(OC)nc2OC)c(=O)n4C)cc1OC [Example 8.12, 1-(2,6-Dimethoxy-pyridin-3-yl)-8-(5-methoxy-6-methoxymethyl-pyridin-3-yl)-3-methyl-1,3-dihydro-imidazo[4,5-c]quinolin-2-one] | 0.0816 µM | 0.004 µM |  |
| COCCN(C)c1ccc(-n2c(=O)n(C)c3cnc4ccc(-c5cnc(N(C)C)nc5)cc4c32)c(C)n1 [Example 15.5, 8-(2-Dimethylamino-pyrimidin-5-yl)-1-{6-[(2-methoxy-ethyl)-methyl-amino]-2-methyl-pyridin-3-yl}-3-methyl-1,3-dihydro-imidazo[4,5-c]quinolin-2-one] | 0.132 µM | 0.019 µM |  |
| CCOc1ccc(-c2ccc3ncc4c(c3c2)n(-c2cccnc2C)c(=O)n4C)cn1 [Example 2.1, 8-(6-Ethoxy-pyridin-3-yl)-3-methyl-1-(2-methyl-pyridin-3-yl)-1,3-dihydro-imidazo[4,5-c]quinolin-2-one] | 0.0183 µM |  | 0.019 µM |
| CCOc1ccc(-c2ccc3ncc4c(c3c2)n(-c2ccc(NC(=O)COC)nc2C)c(=O)n4C)cn1 [Example 20.2, N-{5-[8-(6-Ethoxy-pyridin-3-yl)-3-methyl-2-oxo-2,3-dihydro-imidazo[4,5-c]quinolin-1-yl]-6-methyl-pyridin-2-yl}-2-methoxy-acetamide] | 0.21 µM | 0.131 µM |  |
| COCCN(C)c1ccc(-n2c(=O)n(C)c3cnc4ccc(-c5cnc(N)c(C(F)(F)F)c5)cc4c32)c(C)n1 [Example 15.1, 8-(6-Amino-5-trifluoromethyl-pyridin-3-yl)-1-{6-[(2-methoxy-ethyl)-methyl-amino]-2-methyl-pyridin-3-yl}-3-methyl-1,3-dihydro-imidazo[4,5-c]quinolin-2-one] | 0.0061 µM | 0.001 µM |  |
| COCCN(C)c1ccc(-n2c(=O)n(C)c3cnc4ccc(-c5cnc6c(ccn6C)c5)cc4c32)c(C)n1 [Example 15.7, 1-{6-[(2-Methoxy-ethyl)-methyl-amino]-2-methyl-pyridin-3-yl}-3-methyl-8-(1-methyl-1H-pyrrolo[2,3-b]pyridin-5-yl)-1,3-dihydro-imidazo[4,5-c]quinolin-2-one] | 0.0244 µM | 0.002 µM |  |
| COc1ncccc1-n1c(=O)n(C)c2cnc3ccc(-c4cnc5c(ccn5C)c4)cc3c21 [Example 1.7, 1-(2-Methoxy-pyridin-3-yl)-3-methyl-8-(1-methyl-1H-pyrrolo[2,3-b]pyridin-5-yl)-1,3-dihydro-imidazo[4,5-c]quinolin-2-one] | 0.0296 µM |  | 0.0121 µM |
| CNc1cc(-c2ccc3ncc4c(c3c2)n(-c2ccc(C(F)(F)F)nc2C)c(=O)n4C)cnc1CO [Example 33.2, 8-(6-Hydroxymethyl-5-methylamino-pyridin-3-yl)-3-methyl-1-(2-methyl-6-trifluoromethyl-pyridin-3-yl)-1,3-dihydro-imidazo[4,5-c]quinolin-2-one] | < 0.00447 µM | 0.002 µM |  |

Now from value to compound, other results behind:

| IC50 [2] | Compound | IC50 ([1]; read-out: p-S6 IC50) | IC50 ([1]; read-out: p-S6) |
| --- | --- | --- | --- |
| 0.0603 µM | COc1ncccc1-n1c(=O)n(C)c2cnc3ccc(-c4cnc(N(C)C)nc4)cc3c21 [Example 1.9, 8-(2-Dimethylamino-pyrimidin-5-yl)-1-(2-methoxy-pyridin-3-yl)-3-methyl-1,3-dihydro-imidazo[4,5-c]quinolin-2-one] |  | 0.0328 µM |
| 0.0403 µM | Cc1ccc(-n2c(=O)n(C)c3cnc4ccc(-c5cnc(N(C)C)nc5)cc4c32)c(C)n1 [Example 14.3, 8-(2-Dimethylamino-pyrimidin-5-yl)-1-(2,6-dimethyl-pyridin-3-yl)-3-methyl-1,3-dihydro-imidazo[4,5-c]quinolin-2-one] | 0.01 µM |  |
| 0.0233 µM | Cc1nc(F)ccc1-n1c(=O)n(C)c2cnc3ccc(-c4cncc(N)c4)cc3c21 [Example 7.16, 8-(5-Amino-pyridin-3-yl)-1-(6-fluoro-2-methyl-pyridin-3-yl)-3-methyl-1,3-dihydro-imidazo[4,5-c]quinolin-2-one] | 0.026 µM |  |
| 0.0783 µM | CCNc1cc(-c2ccc3ncc4c(c3c2)n(-c2cnc(F)cc2C)c(=O)n4C)cnc1C [Example 16.2, 8-(5-Ethylamino-6-methyl-pyridin-3-yl)-1-(6-fluoro-4-methyl-pyridin-3-yl)-3-methyl-1,3-dihydro-imidazo[4,5-c]quinolin-2-one] | 0.006 µM |  |
| 0.0242 µM | CNc1ncc(-c2ccc3ncc4c(c3c2)n(-c2ccc(C)nc2C)c(=O)n4C)cn1 [Example 14.4, 1-(2,6-Dimethyl-pyridin-3-yl)-3-methyl-8-(2-methylamino-pyrimidin-5-yl)-1,3-dihydro-imidazo[4,5-c]quinolin-2-one] | 0.007 µM |  |
| 0.0656 µM | Cc1cc(F)ncc1-n1c(=O)n(C)c2cnc3ccc(-c4cnc(N)c(C(F)(F)F)c4)cc3c21 [Example 16.1, 8-(6-Amino-5-trifluoromethyl-pyridin-3-yl)-1-(6-fluoro-4-methyl-pyridin-3-yl)-3-methyl-1,3-dihydro-imidazo[4,5-c]quinolin-2-one] | < 0.000457 µM |  |
| 0.302 µM | CNc1ncc(-c2ccc3ncc4c(c3c2)n(-c2cnc(F)cc2C)c(=O)n4C)cn1 [Example 16.3, 1-(6-Fluoro-4-methyl-pyridin-3-yl)-3-methyl-8-(2-methylamino-pyrimidin-5-yl)-1,3-dihydro-imidazo[4,5-c]quinolin-2-one] | 0.022 µM |  |
| 0.0225 µM | CCOc1cc(-c2ccc3ncc4c(c3c2)n(-c2cccnc2C)c(=O)n4C)cnc1C [Example 2.22, 8-(5-Ethoxy-6-methyl-pyridin-3-yl)-3-methyl-1-(2-methyl-pyridin-3-yl)-1,3-dihydro-imidazo[4,5-c]quinolin-2-one] | 0.012 µM |  |
| 0.0158 µM | CNc1cc(-c2ccc3ncc4c(c3c2)n(-c2ccc(F)nc2C)c(=O)n4C)cnc1CO [Example 7.11, 1-(6-Fluoro-2-methyl-pyridin-3-yl)-8-(6-hydroxymethyl-5-methylamino-pyridin-3-yl)-3-methyl-1,3-dihydro-imidazo[4,5-c]quinolin-2-one] | 0.007 µM |  |
